Measured values from ChEMBL document CHEMBL1201862, “PubChem BioAssay data set” (2004).
“And” between values parts separate entries of the source, which are not always exact repeats. Identical values can stand only once. The source made the active and inactive calls.

Experiments:
Tumor necrosis factor = Tumor necrosis factor (Homo sapiens, UniProt P01375); assay: TNFa-triggered NF-kB activation inhibitors, SAR follow-up, cell-based, revised (AID 2337); format: functional
[1] = biological target: T1, Nucleotide-binding oligomerization domain-containing protein 1 (Homo sapiens, UniProt Q9Y239); assay: NOD1 signaling inhibitors, SAR follow-up, revised (AID 2333); format: functional
T1 sequence (Q9Y239 whole entry): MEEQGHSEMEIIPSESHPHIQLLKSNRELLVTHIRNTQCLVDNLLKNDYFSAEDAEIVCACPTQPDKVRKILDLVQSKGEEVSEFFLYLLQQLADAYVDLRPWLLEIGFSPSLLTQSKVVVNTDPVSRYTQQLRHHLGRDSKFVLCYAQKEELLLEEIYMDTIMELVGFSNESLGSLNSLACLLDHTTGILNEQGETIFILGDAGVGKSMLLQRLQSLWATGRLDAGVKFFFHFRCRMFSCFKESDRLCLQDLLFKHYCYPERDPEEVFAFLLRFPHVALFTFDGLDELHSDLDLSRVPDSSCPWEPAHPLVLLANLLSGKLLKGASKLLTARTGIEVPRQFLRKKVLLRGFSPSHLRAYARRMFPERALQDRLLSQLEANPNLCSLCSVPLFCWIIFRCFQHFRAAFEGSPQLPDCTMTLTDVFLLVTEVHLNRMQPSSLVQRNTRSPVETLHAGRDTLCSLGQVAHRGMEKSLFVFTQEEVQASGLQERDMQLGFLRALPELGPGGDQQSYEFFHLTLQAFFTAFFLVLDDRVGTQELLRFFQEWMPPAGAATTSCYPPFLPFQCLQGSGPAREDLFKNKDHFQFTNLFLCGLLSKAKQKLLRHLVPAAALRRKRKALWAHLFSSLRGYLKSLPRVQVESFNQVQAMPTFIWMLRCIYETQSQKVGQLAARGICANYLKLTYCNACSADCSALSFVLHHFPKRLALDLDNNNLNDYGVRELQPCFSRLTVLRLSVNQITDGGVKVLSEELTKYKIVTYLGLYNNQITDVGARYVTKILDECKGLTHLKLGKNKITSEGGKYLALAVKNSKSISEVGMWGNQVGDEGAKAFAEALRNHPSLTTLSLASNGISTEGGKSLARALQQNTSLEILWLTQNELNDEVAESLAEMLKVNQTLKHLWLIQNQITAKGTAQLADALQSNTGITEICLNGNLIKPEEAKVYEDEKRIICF

[2] = biological target: Nucleotide-binding oligomerization domain-containing protein 2 (Homo sapiens, UniProt Q9HC29); assay: PubChem AID 2334; format: functional
Sequence of Nucleotide-binding oligomerization domain-containing protein 2 (Q9HC29 whole entry, the tested form may be a part): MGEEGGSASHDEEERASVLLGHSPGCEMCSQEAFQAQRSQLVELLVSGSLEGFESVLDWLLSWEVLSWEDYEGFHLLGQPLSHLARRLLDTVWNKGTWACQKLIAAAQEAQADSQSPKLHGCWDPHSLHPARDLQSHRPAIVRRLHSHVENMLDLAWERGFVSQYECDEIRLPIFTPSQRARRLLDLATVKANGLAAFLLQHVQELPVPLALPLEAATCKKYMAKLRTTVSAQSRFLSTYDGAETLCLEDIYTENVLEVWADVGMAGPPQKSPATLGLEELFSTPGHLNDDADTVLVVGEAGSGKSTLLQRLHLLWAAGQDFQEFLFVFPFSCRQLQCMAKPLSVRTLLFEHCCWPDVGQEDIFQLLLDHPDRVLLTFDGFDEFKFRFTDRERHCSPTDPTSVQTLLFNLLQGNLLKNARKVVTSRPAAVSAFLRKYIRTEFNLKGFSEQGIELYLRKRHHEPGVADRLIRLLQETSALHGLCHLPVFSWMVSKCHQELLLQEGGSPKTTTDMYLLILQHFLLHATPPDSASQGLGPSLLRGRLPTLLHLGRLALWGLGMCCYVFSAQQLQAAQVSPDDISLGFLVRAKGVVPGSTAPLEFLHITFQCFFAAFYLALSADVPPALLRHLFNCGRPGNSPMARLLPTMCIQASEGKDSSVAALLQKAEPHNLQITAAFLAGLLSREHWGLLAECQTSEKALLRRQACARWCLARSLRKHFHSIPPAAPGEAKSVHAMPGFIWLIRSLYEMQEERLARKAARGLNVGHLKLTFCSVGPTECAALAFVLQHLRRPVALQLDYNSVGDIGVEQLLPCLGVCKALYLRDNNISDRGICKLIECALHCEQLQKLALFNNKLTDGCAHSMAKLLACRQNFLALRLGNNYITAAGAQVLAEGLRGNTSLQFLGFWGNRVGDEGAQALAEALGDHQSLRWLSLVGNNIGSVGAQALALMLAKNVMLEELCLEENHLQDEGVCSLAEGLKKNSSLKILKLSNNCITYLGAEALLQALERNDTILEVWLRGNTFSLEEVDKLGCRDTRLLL

HEK293 = assay: cells; conditions: Homo sapiens;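 also: cells exposed to compound for 14 hours overnight before viability readout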
[3] = biological target: T2, Mannose-6-phosphate isomerase (Homo sapiens, UniProt P34949); assay: PMI enzyme inhibitors, confirmation, biochemical, fluorescence intensity (AID 1535)
T2 sequence (P34949 whole entry): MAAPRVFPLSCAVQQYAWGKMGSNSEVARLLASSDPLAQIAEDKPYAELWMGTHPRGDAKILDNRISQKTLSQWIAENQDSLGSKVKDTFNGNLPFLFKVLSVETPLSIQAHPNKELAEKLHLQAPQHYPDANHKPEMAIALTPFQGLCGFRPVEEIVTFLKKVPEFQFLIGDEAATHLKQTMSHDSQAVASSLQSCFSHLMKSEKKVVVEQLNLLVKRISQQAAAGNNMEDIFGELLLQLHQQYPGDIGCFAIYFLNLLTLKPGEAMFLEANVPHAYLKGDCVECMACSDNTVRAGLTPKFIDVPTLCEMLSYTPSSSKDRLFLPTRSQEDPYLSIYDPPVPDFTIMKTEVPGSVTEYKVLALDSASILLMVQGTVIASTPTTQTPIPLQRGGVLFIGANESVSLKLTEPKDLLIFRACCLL

Phosphomannomutase 2 = biological target: T3, Phosphomannomutase 2 (Homo sapiens, UniProt O15305); assay: Counter screen SAR assay for PMM2 inhibitors via a fluorescence intensity assay. [Related pubchem assays (depositor defined):AID1545, AID1574]
T3 sequence (O15305 whole entry): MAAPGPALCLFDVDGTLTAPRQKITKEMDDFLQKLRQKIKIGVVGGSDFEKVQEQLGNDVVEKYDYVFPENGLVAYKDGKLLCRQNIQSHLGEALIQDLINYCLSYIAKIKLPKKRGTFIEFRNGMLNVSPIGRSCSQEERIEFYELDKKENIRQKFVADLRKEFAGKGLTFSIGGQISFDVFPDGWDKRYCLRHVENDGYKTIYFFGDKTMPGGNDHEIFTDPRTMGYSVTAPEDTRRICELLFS

[4] = biological target: Phosphoethanolamine/phosphocholine phosphatase (Homo sapiens, UniProt Q8TCT1); assay: SAR assay for compounds that inhibit PHOSPHO1. [Related pubchem assays (depositor defined):AID1545, AID1565, AID1574]
Sequence of Phosphoethanolamine/phosphocholine phosphatase (Q8TCT1 whole entry): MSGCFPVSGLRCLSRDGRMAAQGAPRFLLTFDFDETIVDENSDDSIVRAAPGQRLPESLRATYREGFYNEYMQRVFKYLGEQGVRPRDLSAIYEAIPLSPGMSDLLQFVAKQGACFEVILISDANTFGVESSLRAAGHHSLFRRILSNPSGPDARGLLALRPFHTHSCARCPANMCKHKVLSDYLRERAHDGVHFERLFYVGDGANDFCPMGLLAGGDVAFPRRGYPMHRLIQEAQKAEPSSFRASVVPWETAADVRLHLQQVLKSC

Cytochrome P450 2C19 = Cytochrome P450 2C19 (Homo sapiens, UniProt P33261); assay: Cytochrome panel assay with activity outcomes. Panel member name: p450-cyp2c19 Compounds with AC50 equal or less than 10 uM are considered active; format: functional; conditions: read-out: AC50
Sequence of Cytochrome P450 2C19 (P33261 whole entry): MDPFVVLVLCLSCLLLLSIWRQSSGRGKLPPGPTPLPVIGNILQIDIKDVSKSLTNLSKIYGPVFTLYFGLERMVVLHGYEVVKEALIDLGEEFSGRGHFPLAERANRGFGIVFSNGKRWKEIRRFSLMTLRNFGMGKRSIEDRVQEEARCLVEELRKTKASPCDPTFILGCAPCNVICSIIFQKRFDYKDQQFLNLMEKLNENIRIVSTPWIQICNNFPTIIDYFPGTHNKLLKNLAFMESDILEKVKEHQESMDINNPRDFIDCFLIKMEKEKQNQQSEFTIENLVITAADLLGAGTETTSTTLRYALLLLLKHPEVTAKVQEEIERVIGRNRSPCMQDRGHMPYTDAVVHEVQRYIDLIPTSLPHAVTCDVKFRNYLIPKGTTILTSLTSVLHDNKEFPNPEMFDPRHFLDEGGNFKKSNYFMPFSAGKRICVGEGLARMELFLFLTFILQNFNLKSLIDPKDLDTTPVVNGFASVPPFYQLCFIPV

Cytochrome P450 2C9 = Cytochrome P450 2C9 (Homo sapiens, UniProt P11712)
Sequence of Cytochrome P450 2C9 (P11712 whole entry): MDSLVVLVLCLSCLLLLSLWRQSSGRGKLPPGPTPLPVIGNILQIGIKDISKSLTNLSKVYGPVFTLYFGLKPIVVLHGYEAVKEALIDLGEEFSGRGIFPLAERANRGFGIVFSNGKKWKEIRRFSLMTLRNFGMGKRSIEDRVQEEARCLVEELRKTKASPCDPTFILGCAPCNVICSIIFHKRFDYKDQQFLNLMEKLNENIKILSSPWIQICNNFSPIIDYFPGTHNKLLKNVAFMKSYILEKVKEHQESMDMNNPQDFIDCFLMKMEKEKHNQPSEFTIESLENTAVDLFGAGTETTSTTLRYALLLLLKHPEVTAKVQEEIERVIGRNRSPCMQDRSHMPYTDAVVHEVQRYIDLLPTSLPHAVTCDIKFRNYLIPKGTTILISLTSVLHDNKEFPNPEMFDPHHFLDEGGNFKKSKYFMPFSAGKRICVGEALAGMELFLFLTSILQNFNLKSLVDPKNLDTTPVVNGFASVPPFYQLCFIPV

Cytochrome P450 3A4 = Cytochrome P450 3A4 (Homo sapiens, UniProt P08684);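 also: CYP3A4 tested as one member of a cytochrome P450 panel screen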
Sequence of Cytochrome P450 3A4 (P08684 whole entry): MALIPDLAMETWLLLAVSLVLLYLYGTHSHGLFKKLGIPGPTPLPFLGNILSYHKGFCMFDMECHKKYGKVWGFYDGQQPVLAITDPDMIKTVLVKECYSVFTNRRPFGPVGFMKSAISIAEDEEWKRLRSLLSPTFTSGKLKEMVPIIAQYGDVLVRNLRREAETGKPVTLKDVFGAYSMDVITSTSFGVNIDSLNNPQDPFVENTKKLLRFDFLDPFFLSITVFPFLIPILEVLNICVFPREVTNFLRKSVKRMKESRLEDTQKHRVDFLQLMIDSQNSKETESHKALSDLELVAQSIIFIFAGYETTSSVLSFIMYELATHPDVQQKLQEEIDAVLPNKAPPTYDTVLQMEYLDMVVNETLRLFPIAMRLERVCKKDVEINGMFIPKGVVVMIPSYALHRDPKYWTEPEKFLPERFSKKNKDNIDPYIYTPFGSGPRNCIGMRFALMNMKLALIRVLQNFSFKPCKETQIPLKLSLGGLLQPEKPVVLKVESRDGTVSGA

Mu-type opioid receptor = Mu-type opioid receptor (Homo sapiens, UniProt P35372); assay: SAR Analysis of Antagonists of the MOR Receptor using an Image-Based Assay - Set 3. [Related pubchem assays (depositor defined):AID1777, AID1785, AID1786, AID1966, AID2133, AID2136, AID2284, AID2285, AID2420]; format: functional
Sequence of Mu-type opioid receptor (P35372 whole entry): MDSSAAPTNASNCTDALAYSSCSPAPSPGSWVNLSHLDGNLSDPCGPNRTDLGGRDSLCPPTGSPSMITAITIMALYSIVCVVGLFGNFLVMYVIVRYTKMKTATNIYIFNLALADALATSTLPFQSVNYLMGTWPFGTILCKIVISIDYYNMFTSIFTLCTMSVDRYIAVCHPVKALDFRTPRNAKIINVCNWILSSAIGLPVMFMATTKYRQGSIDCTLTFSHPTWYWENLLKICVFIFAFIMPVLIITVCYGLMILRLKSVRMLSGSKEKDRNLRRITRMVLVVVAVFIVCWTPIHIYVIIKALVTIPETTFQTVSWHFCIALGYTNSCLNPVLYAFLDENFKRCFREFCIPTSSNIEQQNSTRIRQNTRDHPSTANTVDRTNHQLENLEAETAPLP

[5] = biological target: Delta-type opioid receptor (Homo sapiens, UniProt P41143); assay: SAR Analysis of Antagonists of the DOR Receptor using an Image-Based Assay - Set 3. [Related pubchem assays (depositor defined):AID1777, AID1785]; format: functional;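 also: U2OS cells expressing DOR1 and beta-arrestin GFP stimulated with 100 nM SNC80; imaging of GFP-tagged beta-arrestin moving into spots after receptor activation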
Sequence of Delta-type opioid receptor (P41143 whole entry): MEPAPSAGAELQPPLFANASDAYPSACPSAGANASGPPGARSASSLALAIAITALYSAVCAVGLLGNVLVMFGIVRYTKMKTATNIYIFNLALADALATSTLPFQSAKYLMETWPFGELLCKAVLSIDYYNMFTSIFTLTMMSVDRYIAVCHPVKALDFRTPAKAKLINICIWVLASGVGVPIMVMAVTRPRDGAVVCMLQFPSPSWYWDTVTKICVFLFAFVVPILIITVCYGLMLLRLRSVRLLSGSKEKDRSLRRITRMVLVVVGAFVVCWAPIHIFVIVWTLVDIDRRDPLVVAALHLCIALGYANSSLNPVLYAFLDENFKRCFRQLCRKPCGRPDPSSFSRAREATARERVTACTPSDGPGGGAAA

[6] = biological target: T4, Kappa-type opioid receptor (Homo sapiens, UniProt P41145); assay: SAR analysis of small molecule antagonists of the kappa opioid receptor via a luminescent beta-arrestin assay - Set 3. [Related pubchem assays (depositor defined):AID1777, AID1778, AID1785, AID1786, AID1966, AID2133, AID2136, AID2285, AID2495]; format: functional
T4 sequence (P41145 whole entry): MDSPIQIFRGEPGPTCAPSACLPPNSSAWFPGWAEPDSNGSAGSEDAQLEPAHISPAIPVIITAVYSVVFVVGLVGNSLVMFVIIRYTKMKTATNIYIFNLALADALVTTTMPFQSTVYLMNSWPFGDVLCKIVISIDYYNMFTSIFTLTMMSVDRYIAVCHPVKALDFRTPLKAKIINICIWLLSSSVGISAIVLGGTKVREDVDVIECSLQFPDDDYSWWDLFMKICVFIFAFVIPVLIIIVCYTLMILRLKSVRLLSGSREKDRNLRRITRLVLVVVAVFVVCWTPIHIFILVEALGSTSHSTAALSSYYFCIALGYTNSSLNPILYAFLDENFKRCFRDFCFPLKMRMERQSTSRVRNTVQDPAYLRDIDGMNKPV

[7] = biological target: T4, Kappa-type opioid receptor; assay: SAR analysis of Antagonists of the Kappa Opioid Receptor (KOR) using an Image-Based Assay - Set 4. [Related pubchem assays (depositor defined):AID1777, AID1785]; format: functional
[8] = THP-1 cell cytotoxicity, dose response, cytotoxicity control for non-replicating M. tuberculosis project (AID 489025); format: functional
[9] = Vero E6 cell cytotoxicity, dose response, cytotoxicity control for non-replicating M. tuberculosis project, secondary assay (AID 492998); format: functional, VeroE6; conditions: Vero C1008
X-box-binding protein 1 = X-box-binding protein 1 (Homo sapiens, UniProt P17861); format: functional, Cricetulus griseus;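 also: confirmatory dose-response counter-screen serving a CHOP assay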
Sequence of X-box-binding protein 1 (P17861 whole entry): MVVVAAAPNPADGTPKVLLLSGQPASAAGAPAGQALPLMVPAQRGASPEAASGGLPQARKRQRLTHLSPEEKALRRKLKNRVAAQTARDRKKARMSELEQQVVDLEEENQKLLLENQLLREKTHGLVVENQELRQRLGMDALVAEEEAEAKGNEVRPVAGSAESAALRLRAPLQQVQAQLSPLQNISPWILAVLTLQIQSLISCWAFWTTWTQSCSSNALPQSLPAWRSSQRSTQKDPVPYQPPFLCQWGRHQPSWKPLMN

Sequence of Tumor necrosis factor (P01375 whole entry, the tested form may be a part): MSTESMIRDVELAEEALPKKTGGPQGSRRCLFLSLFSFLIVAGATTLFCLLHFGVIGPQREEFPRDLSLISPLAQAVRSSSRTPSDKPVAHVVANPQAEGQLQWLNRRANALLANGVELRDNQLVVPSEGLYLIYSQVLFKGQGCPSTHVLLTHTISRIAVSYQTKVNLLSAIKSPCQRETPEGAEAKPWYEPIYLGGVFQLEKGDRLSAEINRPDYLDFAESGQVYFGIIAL

O=C(Nc1ccc(Br)cc1)c1ccc(CN2CCc3ccccc3C2)cc1
IC50 (Tumor necrosis factor): 1.5 µM (active) and 10.9 µM (active)
IC50 [1]: 1.03 µM (active) and 399 nM (active)
IC50 [2]: 1.62 µM (active)
IC50 (HEK293): > 20 µM (inactive)

O=c1c2ccccc2sn1-c1ccc(C(F)(F)F)cc1
IC50 [3]: 41.2 µM (active)
IC50 (Phosphomannomutase 2): > 100 µM (inactive)
IC50 [4]: 34 µM (inactive)

CC(C)c1ccc(N(C(=O)C(F)(F)F)C(C(=O)NC2CCCCC2)c2ccncc2)cc1 (stereo not drawn)
AC50 (Cytochrome P450 2C19): 1.12 µM (inconclusive)
AC50 (Cytochrome P450 2C9): 2.24 µM (inconclusive)
AC50 (Cytochrome P450 3A4): inconclusive

O=C(Nc1nc2ccccc2n1Cc1ccccc1Cl)c1ccco1
IC50 (Tumor necrosis factor): > 20 µM (inactive)
IC50 [1]: > 20 µM (inactive)
IC50 [2]: > 20 µM (inactive)
IC50 (HEK293): > 20 µM (inactive)

CN(CCNC(=O)c1ccc(CNS(=O)(=O)c2ccc([N+](=O)[O-])cc2)cc1)Cc1ccccc1
IC50 (Mu-type opioid receptor): 1.69 µM (active)
IC50 [5]: > 32 µM (inactive)
IC50 [6]: 12.1 µM (inactive)
IC50 [7]: 30.2 µM (inactive)

O=c1c2ccccc2sn1-c1nc2ccccc2s1
IC50 [3]: > 50 µM (inactive)
IC50 (Phosphomannomutase 2): > 100 µM (inactive)

C/C(=N\NC(=O)CCc1ccccc1)C1C(=O)c2ccccc2C1=O
CC50 [8]: 13.8 µM (active)
CC50 [9]: 11.8 µM (active)

Cc1cc(/C=N/Nc2nc(N)ncc2[N+](=O)[O-])c(C)n1-c1cccc(C(F)(F)F)c1
Absolute IC50 (XBP1) (X-box-binding protein 1): 10 µM
